Read-outs that look alike come from different tables or passages of the source.
Tests used:
Menin-MLL = biological target: T1, Menin-MLL (Homo sapiens, UniProt O00255); test: Inhibitory activity against Menin-MLL binding (fluorescence polarization); conditions: 150 nM His-Menin, 15 nM FITC-MLL, 25°C for 60 min
T1 construct: His-Menin (M1-L615 end); purchased BIORTUS BP9210
T1 sequence (O00255 1-615 isoform O00255-1): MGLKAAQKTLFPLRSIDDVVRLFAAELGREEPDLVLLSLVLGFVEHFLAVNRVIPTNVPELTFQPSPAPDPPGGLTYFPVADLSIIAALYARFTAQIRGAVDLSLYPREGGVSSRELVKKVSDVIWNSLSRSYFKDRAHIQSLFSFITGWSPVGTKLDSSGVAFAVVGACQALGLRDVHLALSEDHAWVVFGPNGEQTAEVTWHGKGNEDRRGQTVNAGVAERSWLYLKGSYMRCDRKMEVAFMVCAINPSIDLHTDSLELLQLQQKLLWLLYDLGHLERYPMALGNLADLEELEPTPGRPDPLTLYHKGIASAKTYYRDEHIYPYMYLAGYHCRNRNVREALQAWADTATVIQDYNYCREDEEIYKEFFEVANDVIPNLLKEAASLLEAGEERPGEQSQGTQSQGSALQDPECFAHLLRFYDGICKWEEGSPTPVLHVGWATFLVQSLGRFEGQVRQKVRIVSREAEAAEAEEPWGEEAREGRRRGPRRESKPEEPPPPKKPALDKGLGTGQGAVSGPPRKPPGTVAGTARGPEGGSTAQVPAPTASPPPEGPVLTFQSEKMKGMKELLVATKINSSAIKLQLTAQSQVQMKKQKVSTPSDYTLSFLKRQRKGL
Outline: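 Fluorescence polarization competition: compound and 150 nM His-tagged menin (residues M1-L615) sit 15 min at 25 °C in pH 7.5 HEPES buffer with NaCl, DTT and BSA; 15 nM FITC-labelled MLL peptide then binds for 60 min. IC50 fitted sigmoidally from mP values, duplicate wells.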

[1] = test system: MV-4-11 (carrying MLL-AF4); test: Inhibition of proliferation of human tumor cells (Alamar Blue, 7 days), MV-4-11; type: cell-based; conditions: Homo sapiens, MV4-11, 168 h, MV-4-11 cells (carrying MLL-AF4), method calls the value GI50
Text: Experimental Example 2: Evaluation of Inhibitory Activity of Compounds Against Proliferation of Human Tumor Cells
• Human acute lymphoblastic leukemia cells MV-4-11, purchased from American Type Culture Collection, Catalog Number: CRL-9591; • Human acute myeloid leukemia cells MOLM-13, purchased from COBIOER BIOSCIENCES CO., LTD, Catalog Number: CBP60678; • Human acute myeloid leukemia cells KG-1a, purchased from American Type Culture Collection, Catalog Number: CCL-246.1; • Inverted Microscope, purchased from Olympus Tokyo; • Countess™ Automated Cell Counter, purchased from Invitrogen, Model: C10281; and • Multilabel Reader, purchased from Bio-Tek, Model: Synergy HT.
MV-4-11 cells were cultured in an IMDM medium containing 10% fetal bovine serum, KG-a cells were cultured in an IMDM medium containing 20% fetal bovine serum, or MOLM-13 cells were cultured in an RPMI-1640 medium containing 20% fetal bovine serum, each supplemented with 100 U·mL^-1 penicillin and 100 µg·mL^-1 streptomycin. These cells were cultured at 37°C with 5% CO2. The suspensions of individual cell lines were prepared in their respective media and seeded into 96-well plates at a density of 4,000 cells/well for MV-4-11 and MOLM-13 cells, or 3,000 cells/well for KG-1a cells. On the day of the experiment, a compound stock solution was diluted in a 3-fold or 4-fold gradient using DMSO. Each gradient-diluted stock solution was then further diluted 250-fold with a complete medium to prepare a series of working solutions at different concentrations. Subsequently, 100 µL of working solution (containing a 2-fold concentration series of the test compound) was added to each well, with duplicate wells set up for each concentration.
Seven days after compound addition (on Day 7), an Alamar Blue assay reagent (MCE, HY-111391 / CS-0040317) was added to measure the fluorescence intensity in each well. Wells containing the cells in the growth medium supplemented with 0.1% DMSO (Day 7) served as high-read control wells. The readouts from the wells containing the cells in the growth medium supplemented with 0.1% DMSO on the day of compound addition (Day 0) served as low-reading control well. GraphPad Prism software was used to calculate the concentration required to inhibit 50% of cell proliferation (GI50), which serves as a cell proliferation inhibition activity index.

[2] = test system: MOLM-13 (carrying MLL-AF9); test: Inhibition of proliferation of human tumor cells (Alamar Blue, 7 days), MOLM-13; type: cell-based; conditions: Homo sapiens, MOLM-13 cells (carrying MLL-AF9), method calls the value GI50
Outline: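 GI50 from Alamar Blue fluorescence after 7-day compound exposure, duplicate wells, using Day-0 and Day-7 0.1% DMSO wells as low and high controls. MV-4-11 in IMDM/10% FBS and MOLM-13 in RPMI-1640/20% FBS at 4,000 cells/well; KG-1a in IMDM/20% FBS at 3,000 cells/well.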

[3] = Menin-MLL IC50, fluorescence polarization
[4] = fluorescence polarization, read-out: Menin-MLL IC50

SMILES | IC50 [1] | IC50 (Menin-MLL; [4]) | IC50 ([2]; 168 h) | IC50 (Menin-MLL; [3]) | IC50 ([2]; MOLM-13, 168 h)
CCS(=O)(=O)N[C@H]1CC[C@H](CN2CC(c3cc(-c4ccc(F)cc4C(=O)N4CCC[C@H]4C)c4c(F)nc(C)n4c3)C2)CC1 [Example 187, N-[(1r,4r)-4-{[3-(1-fluoro-8-{4-fluoro-2-[(2R)-2-methylpyrrolidin-1-carbonyl]phenyl}-3-methylimidazo[1,5-a]pyridin-6-yl)azacyclobutan-1-yl]methyl}cyclohexyl]ethan-1-sulfonamide] | 15 nM | – | – | 16.5 nM | 36 nM
CCNC(=O)N1CCC(C(C)N2CC(c3cc(-c4ccc(F)cc4C(=O)N(CC)C(C)C)c4c(F)nc(C)n4c3)C2)CC1 (stereo not drawn) [Example 282, N-ethyl-4-{1-[3-(8-{2-[ethyl(isopropyl)aminoformyl]-4-fluorophenyl}-1-fluoro-3-methylimidazo[1,5-a]pyridin-6-yl)azacyclobutan-1-yl]ethyl}piperidin-1-formamide] | 5.4 nM | 4 nM | 25 nM | – | –
CCN(C(=O)c1cc(F)ccc1-c1cc(C2CN(C(C)C3CCN(C(C)=O)CC3)C2)cn2c(C)nc(F)c12)C(C)C (stereo not drawn) [Example 288] | 15 nM | 6 nM | 55 nM | – | –
Cc1nc(F)c2c(-c3ccc(F)cc3C(=O)N3[C@H](C)COC[C@H]3C)cc(C3CN(CC4CCN(C(=O)N5CC(F)(F)C5)CC4)C3)cn12 [Example 242] | 5.9 nM | 9.5 nM | 28 nM | – | –
CCS(=O)(=O)N[C@H]1CC[C@H](CN2CCC(c3cc(-c4ccc(F)cc4C(=O)N(CC(F)F)C(C)C)c4cnc(C)n4c3)CC2)CC1 [Example 128] | 56 nM | – | – | 37 nM | 30 nM
Cc1ncc2c(-c3ccc(F)cc3C(=O)N3CCC[C@H]3C)cc(C3CN(C(C)C4CCOCC4)C3)cn12 (stereo partly drawn) [Example 190] | 25 nM | 29.5 nM | 40 nM | – | –
CCNC(=O)N1CCC(C(C)N2CC(c3cc(-c4ccc(F)cc4C(=O)N(CC)C(C)C)c4cnc(C)n4c3)C2)CC1 (stereo not drawn) [Example 285] | 5.4 nM | 4 nM | 23 nM | – | –
CO[C@H]1CCN(CCC[C@H](C(C)C)N2CC(c3cc(-c4ccc(F)cc4C(=O)N4CCOC[C@H]4C)c4cnn(C)c4c3)C2)C1 [Example 184-2] | 6.3 nM | 13 nM | 34 nM | – | –
CCN(C(=O)c1cc(F)ccc1-c1cc(C2CN([C@H](CCCN(C)CCOC)C(C)C)C2)cn2c(C)nc(F)c12)C(C)C [Example 307-2, N-ethyl-5-fluoro-2-(1-fluoro-6-{1-[(3R)-6-[(2-methoxyethyl)(methyl)amino]-2-methylhexan-3-yl]azacyclobutan-3-yl}-3-methylimidazo[1,5-a]pyridin-8-yl)-N-(isopropyl)benzamide] | 0.69 nM | 6 nM | 3.7 nM | – | –
COCCC(=O)N1CCC(CN2CC(c3cc(-c4ccc(F)cc4C(=O)N4[C@H](C)COC[C@H]4C)c4c(F)nc(C)n4c3)C2)CC1 [Example 223] | 8.1 nM | 15 nM | 19 nM | – | –

Further lines, with some results ahead:

IC50 [1] | IC50 (Menin-MLL; [4]) | IC50 ([2]; 168 h) | SMILES | IC50 (Menin-MLL; [3]) | IC50 ([2]; MOLM-13, 168 h)
2.1 nM | 7.5 nM | 5.3 nM | Cc1nc(F)c2c(-c3ccc(F)cc3C(=O)N3[C@H](C)COC[C@H]3C)cc(C3CN(CC4CCN(C(=O)CC#N)CC4)C3)cn12 [Example 226] | – | –
6.7 nM | 11 nM | 13 nM | Cc1nc(F)c2c(-c3ccc(F)cc3C(=O)N3[C@H](C)COC[C@H]3C)cc(C3CN(CC4CCN(C(=O)C5CC5)CC4)C3)cn12 [Example 215] | – | –
36 nM | 32.5 nM | 96 nM | Cc1nc(F)c2c(-c3ccc(F)cc3C(=O)N3CCOC[C@H]3C)cc(C3CN(CC4CCN(C(=O)C(F)F)CC4)C3)cn12 [Example 268] | – | –
34 nM | 30.5 nM | 63 nM | Cc1nc(F)c2c(-c3ccc(F)cc3C(=O)N3CCOC[C@H]3C)cc(C3CN(CC4CCN(C(=O)C5(O)CC5)CC4)C3)cn12 [Example 248] | – | –
42 nM | 31.5 nM | 200 nM | Cc1ncc2c(-c3ccc(F)cc3C(=O)N3CCOC[C@H]3C)cc(C3CN(CC4CCOCC4)C3)cn12 [Example 243, (3R)-4-[5-fluoro-2-(3-methyl-6-{1-[(oxacyclohexan-4-yl)methyl]azacyclobutan-3-yl}imidazo[1,5-a]pyridin-8-yl)benzoyl]-3-methylmorpholine] | – | –
12 nM | 27 nM | 33 nM | Cc1nc(F)c2c(-c3ccc(F)cc3C(=O)N3CCOC[C@H]3C)cc(C3CN(CC4CCN(C(=O)CC(C)C)CC4)C3)cn12 [Example 271] | – | –
20 nM | 12 nM | 45 nM | Cc1nc(F)c2c(-c3ccc(F)cc3C(=O)N3CCOC[C@H]3C)cc(C3CN(C[C@H]4CC[C@@H](n5cncn5)CC4)C3)cn12 [Example 267, (3R)-4-{5-fluoro-2-[1-fluoro-3-methyl-6-(1-{[(1s,4s)-4-(1H-1,2,4-triazol-1-yl)cyclohexyl]methyl}azacyclobutan-3-yl)imidazo[1,5-a]pyridin-8yl]benzoyl}-3-methylmorpholine] | – | –
11 nM | 18 nM | 27 nM | Cc1nc(F)c2c(-c3ccc(F)cc3C(=O)N3CCOC[C@H]3C)cc(C3CN([C@@H](C)C4CCOCC4)C3)cn12 [Example 238-2, (3R)-4-[5-fluoro-2-(1-fluoro-3-methyl-6-{1-[(1S)-1-(oxacyclohexan-4-yl)ethyl]azacyclobutan-3-yl}imidazo[1,5-a]pyridin-8-yl)benzoyl]-3-methylmorpholine] | – | –
12 nM | 12 nM | 14 nM | Cc1nc(F)c2c(-c3ccc(F)cc3C(=O)N3[C@H](C)COC[C@H]3C)cc(C3CN(CC4CCN(C(=O)C(F)F)CC4)C3)cn12 [Example 219] | – | –
3.3 nM | 6 nM | 7.4 nM | CCNC(=O)N1CCC([C@H](C)N2CC(c3cc(-c4ccc(F)cc4C(=O)N4CCOC[C@H]4C)c4c(F)nc(C)n4c3)C2)CC1 [Example 279] | – | –
50 nM | 24 nM | 44 nM | Cc1nc(F)c2c(-c3ccc(F)cc3C(=O)N3CCOC[C@H]3C)cc(C3CN(CC4CCN(C(=O)CC#N)CC4)C3)cn12 [Example 249] | – | –
13 nM | 13 nM | 33 nM | Cc1nc(F)c2c(-c3ccc(F)cc3C(=O)N3CCOC[C@H]3C)cc(C3CN(CC4CCN(c5cncnc5)CC4)C3)cn12 [Example 266, (3R)-4-{5-fluoro-2-[1-fluoro-3-methyl-6-(1-{[1-(pyrimidin-5-yl)piperidin-4-yl]methyl}azacyclobutan-3-yl)imidazo[1,5-a]pyridin-8yl]benzoyl}-3-methylmorpholine] | – | –
4.9 nM | 9.5 nM | 46 nM | CCCC(=O)N1CCC([C@H](C)N2CC(c3cc(-c4ccc(F)cc4C(=O)N4CCOC[C@H]4C)c4c(F)nc(C)n4c3)C2)CC1 [Example 294] | – | –

Reference: patent EP4782453A1 (Beyang Therapeutics Co., Ltd., priority 2023, dated 2025)
